Measured values: publication PMC6277767, “Broad and Region-Specific Impacts of the Synthetic Cannabinoid CP 55,940 in Adolescent and Adult Female Mouse Brains” (Frontiers in Molecular Neuroscience, 2018)

Tested on: CD1 female mouse brain lipidome
Assay: Brain-region lipid levels (HPLC/MS/MS lipidomics) 2 h after single i.p. 3 mg/kg CP 55,940 vs vehicle
Format: in vivo
Parameters: N-arachidonoyl phenylalanine level, Mean / N-stearoyl tryptophan level, Mean / N-stearoyl proline level, Mean / N-stearoyl leucine level, Mean / N-stearoyl phenylalanine level, Mean / N-stearoyl serine level, Mean / N-stearoyl methionine level, Mean: unit: moles per gram
Method: The Bloomington Institutional Animal Care and Use Committee of Indiana University reviewed and approved the animal procedures. Female mice from the CD1 strain were utilized to match our study examining THC’s effects on the brain lipidome ([Leishman et al., 2018]). Mice were given a single i.p. injection of either 3 mg/kg CP or 1:1:18 cremophor:ethanol:saline vehicle (please refer to the section “3 mg/kg CP Is Relevant for Synthetic Cannabinoid Abuse and Has Stronger Effects on the Female Mouse Brain Lipidome During Adolescence” for a justification of dose and use of female mice). Three different age groups were given injections: PND 35 and PND 50 adolescents, and adult mice (PND 113). At least eight mice in each age group received CP and at least eight received vehicle. Matching the THC study time course ([Leishman et al., 2018]), mice were sacrificed via rapid decapitation 2 h after injection. Brains were immediately removed and flash-frozen in liquid nitrogen, and then stored at -80°C until dissections were performed. Brains were dissected on an ice-cold dissection plate into the following regions: STR, HIPP, CER, THAL, CTX, HYP, MID, and STEM. These abbreviations for these brain areas will be used exclusively when discussing the results generated by these specific dissections. Each dissected area was immediately placed in liquid nitrogen and then stored at -80°C until used for lipid extraction.
Tissue extracts were performed as previously described ([Bradshaw et al., 2006]; [Stuart et al., 2013]; [Raboune et al., 2014]; [Leishman et al., 2016a],[b], [2017], [2018]). First, samples were shock frozen in liquid nitrogen, weighed, and transferred to a centrifuge tube. The mass of the largest sample was multiplied by 50 to determine how many milliliters of HPLC-grade methanol (Fisher, Fair Lawn, NJ, United States) to add. Then, samples were spiked with 500 pmol deuterium-labeled NAGly (d8NAGly; Cayman Chemical, Ann Arbor, MI, United States). Samples were placed on ice in darkness for 2 h then individually homogenized and centrifuged at 19,000 × g for 20 min at 20°C. Supernatants were diluted with HPLC water (purified in house) to make a solution of 75% water, 25% supernatant. Lipids were partially purified on C18 solid phase extraction columns (Agilent, Palo Alto, CA, United States). A series of four elutions with 1.5 mL of 60%, 75%, 85%, and 100% methanol were collected ([Stuart et al., 2013]; [Leishman et al., 2016a],[b], [2018]).
As previously described ([Bradshaw et al., 2006]; [Tan et al., 2006]; [Smoum et al., 2010]; [Stuart et al., 2013]; [Tortoriello et al., 2013]; [Raboune et al., 2014]; [Leishman et al., 2016a],[b], [2017], [2018]), samples were analyzed using an Applied Biosystems API 3000 triple quadrupole mass spectrometer with electrospray ionization (Foster City, CA, United States). Using an Agilent XDB-C18 reversed phase analytical column and optimized mobile phase gradients, 20 μL from each elution were chromatographed. Two Shimadzu 10ADvp pumps (Columbia, MD, United States) provided the pressure for gradient elution. Mobile phase A: 20% methanol, 80% water (v/v) and 1 mM ammonium acetate (Sigma, St. Louis, MO, United States). Mobile phase B: 100% methanol, 1 mM ammonium acetate. Every method run began with 0% mobile phase B, reached 100% mobile phase B flowing at 0.2 mL/min, and gradually returned to 0% mobile phase B.
This screening library will be referred to as the lipidome when discussing data from this study. HPLC/MS/MS data were analyzed using Analyst software (Applied Biosystems) ([Bradshaw et al., 2006]; [Tan et al., 2006]; [Stuart et al., 2013]; [Tortoriello et al., 2013]; [Raboune et al., 2014]; [Leishman et al., 2016a],[b], [2017], [2018]). Chromatograms (Supplementary Figure 3) were generated by determining the retention time of analytes from the analytical column with a [M-1] or [M+1] parent peak and a fragmentation peak corresponding to the programmed values. […]

[1] = hypothalamus, PND 35 adolescent female mice, 3 mg/kg
[2] = midbrain, PND 50, 3mg/kg CP 55,940
[3] = midbrain, PND 50, 3mg/kg CP 55,940, ANOVA p .000
[4] = midbrain, PND 50, 3mg/kg CP 55,940, ANOVA p .001
[5] = midbrain, PND 50, 3mg/kg CP 55,940, ANOVA p .003
[6] = midbrain, PND 50 female mice, 3mg/kg CP 55,940

CCCCCCC(C)(C)c1ccc([C@@H]2C[C@H](O)CC[C@H]2CCCO)c(O)c1 [CP 55,940]
N-stearoyl leucine level, Mean [1]: 1.34E-12
N-stearoyl phenylalanine level, Mean [1]: 1.92E-12
N-stearoyl serine level, Mean [1]: 2.17E-11
N-stearoyl tryptophan level, Mean [1]: 7.7E-12
Oleic acid level, Mean [1]: 7.46E-10
PGE2 level, Mean [1]: 2.42E-10
PhosphoLEA level, Mean [1]: 6.47E-11
2-linoleoyl glycerol Direction (relative to Veh) [2]: ↓
2-oleoyl glycerol, Direction (relative to Veh) [2]: ↓
6-ketoPGF1α Direction (relative to Veh) [2]: ↓
Arachidonic acid, Direction (relative to Veh) [2]: ↓
Linoleic acid, Direction (relative to Veh) [2]: ↓
N-arachidonoyl GABA Direction (relative to Veh) [2]: ↓
N-arachidonoyl alanine, Direction (relative to Veh) [2]: ↓
N-arachidonoyl ethanolamine, Direction (relative to Veh) [2]: ↓
N-arachidonoyl glycine Direction (relative to Veh) [2]: ↓
N-arachidonoyl methionine, Direction (relative to Veh) [2]: ↓
N-arachidonoyl phenylalanine, Direction (relative to Veh) [2]: ↓
N-arachidonoyl tyrosine, Direction (relative to Veh) [2]: ↓
N-docosahexaenoyl GABA Direction (relative to Veh) [2]: ↓
N-docosahexaenoyl ethanolamine, Direction (relative to Veh) [2]: ↓
N-docosahexaenoyl leucine Direction (relative to Veh) [2]: ↑
N-linoleoyl ethanolamine, Direction (relative to Veh) [2]: ↓
N-oleoyl ethanolamine, Direction (relative to Veh) [2]: ↓
N-oleoyl methionine, Direction (relative to Veh) [2]: ↓
N-palmitoyl alanine, Direction (relative to Veh) [2]: ↓
N-palmitoyl ethanolamine, Direction (relative to Veh) [2]: ↓
N-palmitoyl leucine, Direction (relative to Veh) [2]: ↑
N-palmitoyl serine, Direction (relative to Veh) [2]: ↓
N-stearoyl methionine, Direction (relative to Veh) [2]: ↓
N-stearoyl phenylalanine, Direction (relative to Veh) [2]: ↓
PGE2 Direction (relative to Veh) [2]: ↓
PGF2α Direction (relative to Veh) [2]: ↓
Arachidonic acid, Magnitude (x Veh level) [3]: 0.74 x Veh level
N-arachidonoyl glycine Magnitude (x Veh level) [3]: 0.65 x Veh level
N-arachidonoyl methionine, Magnitude (x Veh level) [3]: 0.64 x Veh level
N-arachidonoyl phenylalanine, Magnitude (x Veh level) [3]: 0.69 x Veh level
N-arachidonoyl tyrosine, Magnitude (x Veh level) [4]: 0.68 x Veh level
PGE2 Magnitude (x Veh level) [4]: 0.75 x Veh level
N-palmitoyl leucine, Magnitude (x Veh level) (midbrain, PND 50, 3mg/kg CP 55,940, ANOVA p .002): 1.33 x Veh level
N-docosahexaenoyl GABA Magnitude (x Veh level) [5]: 0.71 x Veh level
N-linoleoyl ethanolamine, Magnitude (x Veh level) [5]: 0.81 x Veh level
Linoleic acid, Magnitude (x Veh level) (midbrain, PND 50, 3mg/kg CP 55,940, ANOVA p .004): 0.75 x Veh level
PGF2α Magnitude (x Veh level) (midbrain, PND 50, 3mg/kg CP 55,940, ANOVA p .007): 0.82 x Veh level
N-palmitoyl ethanolamine, Magnitude (x Veh level) (midbrain, PND 50, 3mg/kg CP 55,940, ANOVA p .011): 0.86 x Veh level
2-linoleoyl glycerol Magnitude (x Veh level) (midbrain, PND 50, 3mg/kg CP 55,940, ANOVA p .017): 0.82 x Veh level
N-arachidonoyl GABA Magnitude (x Veh level) (midbrain, PND 50, 3mg/kg CP 55,940, ANOVA p .021): 0.73 x Veh level
N-docosahexaenoyl ethanolamine, Magnitude (x Veh level) (midbrain, PND 50, 3mg/kg CP 55,940, ANOVA p .023): 0.81 x Veh level
N-oleoyl methionine, Magnitude (x Veh level) (midbrain, PND 50, 3mg/kg CP 55,940, ANOVA p .026): 0.54 x Veh level
N-arachidonoyl ethanolamine, Magnitude (x Veh level) (midbrain, PND 50, 3mg/kg CP 55,940, ANOVA p .031): 0.83 x Veh level
N-oleoyl ethanolamine, Magnitude (x Veh level) (midbrain, PND 50, 3mg/kg CP 55,940, ANOVA p .037): 0.83 x Veh level
N-stearoyl methionine, Magnitude (x Veh level) (midbrain, PND 50, 3mg/kg CP 55,940, ANOVA p .042): 0.78 x Veh level
N-palmitoyl serine, Magnitude (x Veh level) (midbrain, PND 50, 3mg/kg CP 55,940, ANOVA p .048): 0.84 x Veh level
N-arachidonoyl alanine Magnitude (x Veh level) (midbrain, PND 50, 3mg/kg CP 55,940, ANOVA p .057): 0.62 x Veh level
N-docosahexaenoyl leucine Magnitude (x Veh level) (midbrain, PND 50, 3mg/kg CP 55,940, ANOVA p .063): 1.47 x Veh level
2-oleoyl glycerol, Magnitude (x Veh level) (midbrain, PND 50, 3mg/kg CP 55,940, ANOVA p .073): 0.89 x Veh level
N-stearoyl phenylalanine, Magnitude (x Veh level) (midbrain, PND 50, 3mg/kg CP 55,940, ANOVA p .077): 0.85 x Veh level
N-palmitoyl alanine, Magnitude (x Veh level) (midbrain, PND 50, 3mg/kg CP 55,940, ANOVA p .081): 0.77 x Veh level
6-ketoPGF1α Magnitude (x Veh level) (midbrain, PND 50, 3mg/kg CP 55,940, ANOVA p .089): 0.75 x Veh level
2-arachidonoyl glycerol level, Mean [6]: 3.27E-10
2-linoleoyl glycerol level, Mean [6]: 3.73E-10
2-oleoyl glycerol level, Mean [6]: 4.95E-09
2-palmitoyl glycerol level, Mean [6]: 3.34E-09
6-ketoPGF1α level, Mean [6]: 1.22E-11
11-OH-THC level, Mean [6]: BDL
11-nor-9-carboxyTHC level, Mean [6]: BDL
Arachidonic acid level, Mean [6]: 3.1E-10
Cannabidiol level, Mean [6]: BDL
Linoleic acid level, Mean [6]: 2.67E-10
N- stearoyl valine level, Mean [6]: 9.43E-14
N-arachidonoyl GABA level, Mean [6]: 1.55E-11
N-arachidonoyl alanine level, Mean [6]: 9.08E-14
N-arachidonoyl dopamine level, Mean [6]: BDL
N-arachidonoyl ethanolamine level, Mean [6]: 3.81E-11
N-arachidonoyl glycine level, Mean [6]: 4.39E-12
N-arachidonoyl methionine level, Mean [6]: 1.8E-13
N-arachidonoyl phenylalanine level, Mean [6]: 5.45E-13
N-arachidonoyl proline level, Mean [6]: BDL
N-arachidonoyl serine level, Mean [6]: 7.6E-12
N-arachidonoyl taurine level, Mean [6]: 1.38E-11
N-arachidonoyl tryptophan level, Mean [6]: BDL
N-arachidonoyl tyrosine level, Mean [6]: 3.91E-13
N-docosahexaenoyl GABA level, Mean [6]: 1.45E-12
N-docosahexaenoyl alanine level, Mean [6]: PISSR
N-docosahexaenoyl ethanolamine level, Mean [6]: 5.23E-11
N-docosahexaenoyl glycine level, Mean [6]: 5.53E-13
N-docosahexaenoyl leucine level, Mean [6]: 1.28E-13
N-docosahexaenoyl methionine level, Mean [6]: BDL
N-docosahexaenoyl phenylalanine level, Mean [6]: 6.24E-13
N-docosahexaenoyl proline level, Mean [6]: BDL
N-docosahexaenoyl serine level, Mean [6]: 1.85E-11
N-docosahexaenoyl tryptophan level, Mean [6]: BDL
N-docosahexaenoyl tyrosine level, Mean [6]: 5.71E-13
N-docosahexaenoyl valine level, Mean [6]: PISSR
N-linoleoyl GABA level, Mean [6]: 1.04E-12
N-linoleoyl alanine level, Mean [6]: PISSR
N-linoleoyl ethanolamine level, Mean [6]: 5.21E-11
N-linoleoyl glycine level, Mean [6]: 2.23E-13
N-linoleoyl leucine level, Mean [6]: 3.86E-14
N-linoleoyl methionine level, Mean [6]: BDL
N-linoleoyl phenylalanine level, Mean [6]: 1.31E-13
N-linoleoyl proline level, Mean [6]: BDL
